Source: ChEMBL document CHEMBL6182915, “Discovery of a Potent FLT3 Inhibitor (E)-4-(3-(3-Fluoro-4-(morpholinomethyl)styryl)-1H-indazol-6-yl)pyridin-2-amine for the Treatment of Acute Myeloid Leukemia with Multiple FLT3 Mutations” (J Med Chem, 2025)

Key:
Assay in all cases: cells
MV4-11 [1] = conditions: Homo sapiens, MV4-11, 72 h, read-out: INH
MV4-11 [2] = conditions: Homo sapiens, MV4-11, 72 h
MV4-11 [3] = conditions: Homo sapiens, MV4-11, 72 h; remark: listed apart in the source
Description: Antiproliferative activity against human MV4-11 cells harboring FLT3-ITD mutant assessed as inhibition of cell growth incubated for 3 days by MTT assay

SMILES	IC50 (MV4-11 [2]) [nM]	IC50 (MV4-11 [3]) [nM]	inhibition at 10 µM (MV4-11 [1]) [%]
O=C(Cc1ccc(-c2ccc(OCCN3CCOCC3)cc2)cn1)NCc1ccccc1 [TIRBANIBULIN]	–	–	> 70
O=C(c1ccc(/C=C/c2n[nH]c3cc(-c4ccncc4)ccc23)cc1)N1CCNCC1	3400	12.9	–
Nc1cc(-c2ccc3c(/C=C/c4ccccc4)n[nH]c3c2)ccn1	6100	39.8	–
Nc1cc(-c2ccc3c(/C=C/c4cccnc4)n[nH]c3c2)ccn1	2300	29.5	–
Nc1cc(-c2ccc3c(/C=C/c4ccc(C(=O)N5CCOCC5)cc4)n[nH]c3c2)ccn1	2300	20.3	–
Nc1cc(-c2cnc3c(/C=C/c4ccc(CN5CCOCC5)c(F)c4)n[nH]c3c2)ccn1	900	25.6	–
O=C(c1ccc(/C=C/c2n[nH]c3cc(-c4ccccc4)ccc23)cc1)N1CCNCC1	6900	22.5	–
O=C(c1ccc(/C=C/c2n[nH]c3cc(-c4cccnc4)ccc23)cc1)N1CCNCC1	> 10000	16.5	–
COc1cc(/C=C/c2n[nH]c3cc(-c4ccnc(N)c4)ccc23)cc(OC)c1	> 10000	354	–
CN1CCN(c2ccc(-c3n[nH]c4cc(-c5ccnc(N)c5)ccc34)cc2)CC1	> 10000	54.9	–
Nc1cc(-c2ccc3c(CCc4ccc(CN5CCOCC5)c(F)c4)n[nH]c3c2)ccn1	> 10000	219	–
CCn1cc(-c2n[nH]c3cc(-c4ccnc(N)c4)ccc23)cn1	> 10000	163	–
Nc1cc(-c2ccc3c(-c4ccc(N5CCOCC5)cc4)n[nH]c3c2)ccn1	> 10000	44.5	–
Nc1cc(-c2ccc3c(/C=C/c4ccc(CN5CCOCC5)c(Cl)c4)n[nH]c3c2)ccn1	800	10.4	–
CCc1nc(C(N)=O)c(Nc2ccc(N3CCC(N4CCN(C)CC4)CC3)c(OC)c2)nc1NC1CCOCC1 [GILTERITINIB]	–	–	> 70

The next lines start with results.

IC50 (MV4-11 [2]) [nM]	IC50 (MV4-11 [3]) [nM]	SMILES	inhibition at 10 µM (MV4-11 [1]) [%]
> 10000	87.7	Nc1cc(-c2ccc3c(-c4ccc(CN5CCOCC5)cc4)n[nH]c3c2)ccn1	–
> 10000	27.1	Nc1ccc(-c2ccc3c(/C=C/c4ccc(C(=O)N5CCNCC5)cc4)n[nH]c3c2)cn1	–
1600	16.5	CN1CCN(Cc2ccc(/C=C/c3n[nH]c4cc(-c5ccnc(N)c5)ccc34)cc2)CC1	–
3400	9	Nc1cc(-c2ccc3c(/C=C/c4ccc(N5CCOCC5)cc4)n[nH]c3c2)ccn1	–
1800	6.2	Nc1cc(-c2ccc3c(/C=C/c4ccc(C(=O)N5CCNCC5)cc4)n[nH]c3c2)ccn1	–
> 10000	55.3	O=C(c1ccc(/C=C/c2n[nH]c3ccc(-c4ccccc4)cc23)cc1)N1CCNCC1	–
600	10.7	Nc1nccc(-c2ccc3c(/C=C/c4ccc(CN5CCOCC5)c(F)c4)n[nH]c3c2)n1	–
> 10000	197	Nc1cc(-c2ccc3c(-c4ccc(S(=O)(=O)N5CCOCC5)cc4)n[nH]c3c2)ccn1	–
1100	11.4	Nc1cc(-c2ccc3c(/C=C/c4ccc(CN5CCOCC5)cc4)n[nH]c3c2)ccn1	–
> 10000	156	CN1CCN(Cc2ccc(-c3n[nH]c4cc(-c5ccnc(N)c5)ccc34)cc2)CC1	–
5700	18.7	O=C(c1ccc(/C=C/c2n[nH]c3cc(-c4ccnc5[nH]ccc45)ccc23)cc1)N1CCNCC1	–
6900	18.4	Nc1cc(-c2ccc3c(/C=C/c4ccncc4)n[nH]c3c2)ccn1	–
> 10000	58.7	O=C(c1ccc(/C=C/c2n[nH]c3ccc(-c4ccncc4)cc23)cc1)N1CCNCC1	–
2800	6.4	CN1CCN(c2ccc(/C=C/c3n[nH]c4cc(-c5ccnc(N)c5)ccc34)cc2)CC1	–
> 10000	15.1	O=C(c1ccc(/C=C/c2n[nH]c3ccc(-c4cccnc4)cc23)cc1)N1CCNCC1	–
> 10000	222	Nc1cc(-c2ccc3c(-c4cnn(CCO)c4)n[nH]c3c2)ccn1	–
